# Assay results as given in BindingDB's records for doi:10.1021/jm970550g (Northwestern University, 1998).
# Test: Compound was tested for binding affinity against neuronal nitric oxide synthase(nNOS)
row,Ki [µM],SMILES
1,0.2,C=CCNC(=N)NCCCC(N)C(C)=O (stereo not drawn) [1-Acetyl-4-(N'-allyl-guanidino)-butyl-ammonium]
2,0.43,C#CCNC(=N)NCCCC(N)C(=O)O (stereo not drawn) [2-Amino-5-(N'-prop-2-ynyl-guanidino)-pentanoic acid]

row,SMILES,Ki [µM]
1,CCNC(=N)NCCCC(N)C(=O)O (stereo not drawn) [2-Amino-5-(N'-ethyl-guanidino)-pentanoic acid],16
